Experimental data from patent US20250214964A1, “COMPOUNDS DERIVED FROM 4-AMINO-N-(4-AMINOPHENYL) BENZAMIDE AND ANALOGUES AND USE THEREOF” (priority 2022, published 2025).
Each block holds one compound with its values, some of them ahead of it.

Experiments:
[1] = tested on: intracellular amastigotes of L. donovani (strain MHOM/ET/67/HU3); experiment: L. donovani intracellular amastigotes in THP-1-derived macrophages, resazurin method; format: cell-based; conditions: for SI selectivity index (EC50 THP-1/EC50 parasite (amastigote form)): THP-1 vs L. donovani amastigotes
Procedure: (§1) Furthermore, their cytotoxicity on human THP-1 cells was evaluated and the selectivity index (SI) of each compound was calculated (Table 1).

HEK cells = experiment: Cytotoxicity on HEK cells; conditions: read-out: CC50 HEK; concentration that causes 50% cell death
[2] = tested on: T. b. brucei drug-resistant strain B48; format: cell-based; conditions: for RF resistance factor (EC50 T. b. B48/EC50 T. b. s427): value in parentheses
[3] = tested on: T. b. brucei wild strain s427; experiment: T. b. brucei s427 bloodstream trypomastigotes, Alamar blue; format: cell-based
[4] = Cytotoxicity on THP-1 cells; conditions: human
Procedure: as §1

[5] = Cytotoxicity on L929 cells; format: cell-based; conditions: mouse
[6] = tested on: epimastigotes of T. cruzi (CL strain lacZ); experiment: microbe, parasite or virus in culture; format: cell-based; conditions: Trypanosoma cruzi
[7] = Microsomal stability, human liver microsomes, phase I; conditions: reaction time up to 120 min
[8] = Microsomal stability, mouse liver microsomes; conditions: reaction time up to 120 min

SMILES: C[C@@H]1[C@H](O)[C@@H](C)/C=C/C=C/C=C/C=C/C=C/C=C/C=C/[C@H](O[C@@H]2O[C@H](C)[C@@H](O)[C@H](N)[C@@H]2O)C[C@@H]2O[C@](O)(C[C@@H](O)C[C@@H](O)[C@H](O)CC[C@@H](O)C[C@@H](O)CC(=O)O[C@H]1C)C[C@H](O)[C@H]2C(=O)O [AmB, Amphotericin B]
SI selectivity index (EC50 THP-1/EC50 parasite (amastigote form)) [1]: 116.0

SMILES: O=C(Nc1ccc(N=c2[nH]c3ccccc3[nH]2)c(Cl)c1)c1ccc(N=c2[nH]c3ccccc3[nH]2)cc1Cl [Compound 1f, 4-((1H-benzo[d]imidazol-2(3H)-ylidene)amino)-N-(4-((1H-benzo[d]imidazol-2(3H)-ylidene)amino)-3-chlorophenyl)-2-clorobenzamide]
CC50 (HEK cells): 10.2 ± 0.3 µM | EC50 ([2]; strain B48 resistant to pentamidine and diminazene): 2.93 ± 0.17 µM | RF resistance factor (EC50 T. b. B48/EC50 T. b. s427) [2]: (1.11) | SI ([3]; HEK vs T. brucei): 3.9 | EC50 ([3]; strain s427 of T. b. brucei): 2.64 ± 0.09 µM

EC50 ([1]; Leishmania donovani, Macrophage, read-out: EC50 L. donovani intracellular amastigotes): > 10 µM
SMILES: c1ccc2[nH]c(=Nc3ccc(CCc4ccc(N=c5[nH]c6ccccc6[nH]5)cc4)cc3)[nH]c2c1 [Compound 13, 4,4′-(ethane-1,2-diyl)bis(N-(1H-benzo[d]imidazol-2(3H)-ylidene)aniline)]

SMILES: N=C(Nc1ccc(CCc2ccc(NC(=N)c3ccccn3)cc2)cc1)c1ccccn1 [Compound 17, N,N″-(ethane-1,2-diylbis(4,1-phenylene))dipicolinimidamide]
EC50 [4]: > 50 µM | EC50 at 72 h [5]: > 200 µM

SMILES: CCCCCCCCCCCCCCCCOP(=O)([O-])OCC[N+](C)(C)C [MIL, Miltefosine]
SI selectivity index (EC50 THP-1/EC50 parasite (amastigote form)) [1]: 28.8

SMILES: O=C(Cn1ccnc1[N+](=O)[O-])NCc1ccccc1 [benzn, benznidazole]
EC50 at 72 h [5]: > 200 µM | EC50 [6]: 25.3 ± 2.1 µM

metabolism by mouse liver microsomes (CD-1), in words [8]: slowly metabolised
SMILES: O=C(O)Cc1ccccc1Nc1c(Cl)cccc1Cl [diclofenac]
metabolism by human liver microsomes, in words [7]: rapidly metabolised (high intrinsic clearance)

SMILES: N=C(N)c1ccc(/N=N/Nc2ccc(C(=N)N)cc2)cc1 [dimin., Diminazene]
RF resistance factor (EC50 T. b. B48/EC50 T. b. s427) [2]: (13.1)

SMILES: N=C(N)c1ccc(OCCCCCOc2ccc(C(=N)N)cc2)cc1 [pent., Pentamidine]
RF resistance factor (EC50 T. b. B48/EC50 T. b. s427) [2]: (168)
